Activity calls are given as the source filed them.
Key:
NS3 = NS3 (Hepatitis C virus, UniProt A3EZJ3); experiment: PubChem AID 2173; parameters: species or system Hepacivirus hominis
[1] = viability of PTEN-deleted HCT116 cells – cell-based, HCT116 PTEN knockout, dose response (AID 1047); type: functional;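 also: HCT116 colon tumor cells with PTEN knocked out; cells exposed to compound for 60 hours before readout; potency for loss of cell viability measured by luminescence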
[2] = target: Protein-tyrosine kinase 2-beta (Homo sapiens, UniProt Q14289);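 also: potency of inhibitors of PYK2 kinase phosphorylation of poly-GT substrate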
[3] = viability of HCT116 lacking mutant beta-catenin – cell-based, human colon tumor, dose response (AID 1045); type: functional;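 also: HCT116 colon tumor cells with beta catenin knocked out; cells exposed to compound for 60 hours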
Estrogen receptor = target: T1, Estrogen receptor (Homo sapiens, UniProt P03372);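 also: potency for inhibiting coactivator peptide recruitment to the receptor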
T1 sequence (P03372 whole entry): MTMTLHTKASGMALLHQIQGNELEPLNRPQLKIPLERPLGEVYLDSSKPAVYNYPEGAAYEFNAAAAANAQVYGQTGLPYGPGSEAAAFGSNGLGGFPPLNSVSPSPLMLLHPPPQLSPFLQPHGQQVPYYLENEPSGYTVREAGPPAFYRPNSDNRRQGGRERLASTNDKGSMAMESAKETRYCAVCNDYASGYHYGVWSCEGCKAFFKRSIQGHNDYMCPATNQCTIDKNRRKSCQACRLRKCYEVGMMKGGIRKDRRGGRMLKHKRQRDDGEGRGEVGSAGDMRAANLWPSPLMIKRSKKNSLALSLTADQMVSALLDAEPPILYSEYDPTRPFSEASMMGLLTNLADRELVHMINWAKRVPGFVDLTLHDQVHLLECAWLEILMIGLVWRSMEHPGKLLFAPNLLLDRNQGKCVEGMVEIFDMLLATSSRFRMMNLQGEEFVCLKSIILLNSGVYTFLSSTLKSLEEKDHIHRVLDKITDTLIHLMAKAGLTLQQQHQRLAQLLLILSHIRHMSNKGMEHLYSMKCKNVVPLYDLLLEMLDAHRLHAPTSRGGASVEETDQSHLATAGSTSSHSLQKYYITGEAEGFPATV

[4] = target: T2, High affinity choline transporter 1 (Homo sapiens, UniProt Q9GZV3); experiment: human choline transporter blockers, potency – cell-based, 5-point CRC, membrane potential dye, dose response (AID 504840); type: functional
T2 sequence (Q9GZV3 whole entry): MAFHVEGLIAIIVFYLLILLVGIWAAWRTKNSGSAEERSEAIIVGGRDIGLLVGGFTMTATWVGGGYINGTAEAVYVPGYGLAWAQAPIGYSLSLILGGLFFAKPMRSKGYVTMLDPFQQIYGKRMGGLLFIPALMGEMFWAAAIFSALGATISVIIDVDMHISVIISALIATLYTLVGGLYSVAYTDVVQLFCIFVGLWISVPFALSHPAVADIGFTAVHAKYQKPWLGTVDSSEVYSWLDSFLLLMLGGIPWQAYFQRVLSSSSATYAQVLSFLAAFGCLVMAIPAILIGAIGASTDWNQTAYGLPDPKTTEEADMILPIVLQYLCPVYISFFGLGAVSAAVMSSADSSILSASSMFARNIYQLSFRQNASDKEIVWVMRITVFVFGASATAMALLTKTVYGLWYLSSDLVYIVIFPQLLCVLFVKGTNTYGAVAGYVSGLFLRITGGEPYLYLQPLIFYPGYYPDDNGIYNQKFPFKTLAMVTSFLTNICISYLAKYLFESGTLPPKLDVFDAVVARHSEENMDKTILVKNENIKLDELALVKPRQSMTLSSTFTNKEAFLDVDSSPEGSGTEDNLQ

[5] = Trypanosoma cruzi growth suppression in host cells – NIH3T3 host cells, beta-gal luminescence, confirmation (AID 2044); type: functional, cell-based;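 also: intracellular parasites grown in NIH/3T3 mouse fibroblasts as host cells; luminescent beta-galactosidase reporter signal from transgenic T. cruzi replicating inside host cells; inhibitors lower the luminescence signal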
[6] = target: T3, Calpain-2 catalytic subunit (Sus scrofa, UniProt P43367); experiment: m-calpain protease blockers, concentration series – biochemical, fluorogenic peptide substrate, dose response (AID 1420); type: functional
T3 sequence (P43367 whole entry): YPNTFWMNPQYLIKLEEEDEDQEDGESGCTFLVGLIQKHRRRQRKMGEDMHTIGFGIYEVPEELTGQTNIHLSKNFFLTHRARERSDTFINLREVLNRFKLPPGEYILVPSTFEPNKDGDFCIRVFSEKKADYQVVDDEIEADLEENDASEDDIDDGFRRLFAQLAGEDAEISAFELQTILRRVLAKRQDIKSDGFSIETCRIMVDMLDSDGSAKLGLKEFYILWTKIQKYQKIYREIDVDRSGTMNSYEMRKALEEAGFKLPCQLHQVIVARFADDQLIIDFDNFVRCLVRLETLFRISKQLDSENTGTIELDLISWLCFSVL

Vero = experiment: mammalian cell viability reduction – secondary assay, cytotoxicity control for West Nile virus antiviral project, dose response (AID 1650); type: functional; conditions: Chlorocebus sabaeus
[7] = Luminescence Cell-Based Dose Response to Identify Activators of Luciferase Translation or Activity in H4-C Neuroglioblastoma Cells. [Related pubchem assays: 1829 (Project Summary), 1814 (Primary HTS)]; type: functional
H4 = experiment: Luminescence Cell-Based Dose Response HTS to Identify Activators of 5'UTR Stem-Loop Driven Prion Protein mRNA Translation in H4 Neuroglioblastoma Cells. [Related pubchem assays: 1829 (Project Summary), 1814 (Primary HTS)]; type: functional; conditions: Homo sapiens
[8] = Luminescence Cell-Based Dose Response to Identify Activators of 5'UTR Stem-Loop Driven Prion Protein mRNA Translation in H4-C Neuroglioblastoma Cells. [Related pubchem assays: 1829 (Project Summary), 1814 (Primary HTS)]; type: functional
[9] = Luminescence Cell-Based Dose Confirmation to Identify Activators of 5'UTR Stem-Loop Driven Alpha-Synuclein mRNA Translation in H4 Neuroglioblastoma Cells. [Related pubchem assays: 1829 (Project Summary), 1814 (Primary HTS)]; type: functional
[10] = Luminescence Cell-Based Dose Response HTS to Identify Activators of Luciferase Translation or Activity in H4 […] Cells. [Related pubchem assays: 1829 (Project Summary), 1814 (Primary HTS)]; type: functional
[11] = HPDE-C7 pancreatic duct cell viability loss – fluorescence, HTS (AID 430); type: functional, cell-based; conditions: Homo sapiens
[12] = viability loss of HPDE-C7K cells – cell-based, fluorescence, HTS, primary screen (AID 431); type: functional; conditions: Homo sapiens
[13] = Luminescence Cell-Based Dose Confirmation HTS to Identify Activators of 5'UTR Stem-Loop Driven Alpha-Synuclein mRNA Translation in H4 Neuroglioblastoma Cells. [Related pubchem assays: 1829 (Project Summary), 1814 (Primary HTS)]; type: functional
[14] = target: Eukaryotic translation initiation factor 4E (Mus musculus, UniProt P63073); experiment: blockers of eIF4G binding by eIF4E – biochemical, TR-FRET, dose response (AID 855); type: functional;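 also: potency for disrupting eIF4E binding to eIF4GI seen as loss of FRET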
[15] = CCR5-tropic HIV-1 fusion blockers – cell-based, CCR5-tropic Env, dose response (AID 2279); type: functional
[16] = target: Heat shock protein HSP 90-alpha (Homo sapiens, UniProt P07900); type: functional, organism-based
[17] = antiviral protection against BTV-induced cell death – arbovirus, BSR cells, confirmation (AID 1250); type: functional;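 also: protection from viral cytopathic effect measured as cell viability by ATP luminescence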
[18] = viability of uninfected HEp-2 cells – cell-based, HTS, cytotoxicity control for RSV inhibitor project, dose response (AID 2410); type: functional; conditions: human respiratory syncytial virus
[19] = target: Sphingosine 1-phosphate receptor 3 (Homo sapiens, UniProt Q99500); experiment: Dose response cell-based high throughput screening assay for antagonists of the Sphingosine 1-Phosphate Receptor 3 (S1P3). [Related pubchem assays: 1429, 485 ]; type: functional
[20] = target: 5-hydroxytryptamine receptor 1E (Homo sapiens, UniProt P28566); experiment: Counterscreen assay for S1P3 antagonists: Dose response cell-based high throughput screening assay to identify antagonists of the 5-Hydroxytryptamine Receptor Subtype 1E (5HT1E). [Related pubchem assays: 1429, 485 ]; type: functional
Ion channel NompC = Ion channel NompC (Danio rerio, UniProt Q7T1G6); experiment: Fluorescence counterscreen assay for TRPML3 agonists: dose response cell-based high-throughput screening assay to identify agonists of the transient receptor potential channel N1 (TRPN1). [Related pubchem assays: 1526, 1424, 1448 ]; type: functional
Mucolipin-3 = Mucolipin-3 (Homo sapiens, UniProt Q8TDD5); experiment: Dose response cell-based high-throughput screening assay for agonists of the transient receptor potential channel ML3 (TRPML3). [Related pubchem assays: 1526, 1424, 1448 ]; type: functional
[21] = target: T4, Endoribonuclease toxin MazF (Escherichia coli K-12, UniProt P0AE70); experiment: substrate-only fluorescence increase artefacts – biochemical, single-stranded RNase substrate, counter-screen for MazEF activator project, dose response (AID 588502); type: functional
T4 sequence (P0AE70 whole entry): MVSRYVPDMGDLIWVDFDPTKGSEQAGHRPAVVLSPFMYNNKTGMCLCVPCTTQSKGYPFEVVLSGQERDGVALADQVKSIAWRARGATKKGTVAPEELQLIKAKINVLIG

[22] = target: T4, Endoribonuclease toxin MazF; experiment: activation of MazEF endoribonuclease cleavage – biochemical, fluorescence, single-stranded RNA substrate, uHTS hits, dose response (AID 588481); type: functional
[23] = target: T5, Low molecular weight phosphotyrosine protein phosphatase (Homo sapiens, UniProt P24666); type: functional; conditions: read-out: IC50_Mean
T5 sequence (P24666 whole entry): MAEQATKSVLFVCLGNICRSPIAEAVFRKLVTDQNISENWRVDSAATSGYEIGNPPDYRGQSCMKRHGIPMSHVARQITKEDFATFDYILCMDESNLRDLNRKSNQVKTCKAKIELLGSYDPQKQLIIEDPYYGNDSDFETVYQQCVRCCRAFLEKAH

[24] = target: T6, Carboxy-terminal domain RNA polymerase II polypeptide A small phosphatase 1 (Homo sapiens, UniProt Q9GZU7); experiment: CTDSP1 inhibitors, concentration-response, biochemical, absorbance readout, ultra-high-throughput screen actives (AID 540297); type: functional
T6 sequence (Q9GZU7 whole entry): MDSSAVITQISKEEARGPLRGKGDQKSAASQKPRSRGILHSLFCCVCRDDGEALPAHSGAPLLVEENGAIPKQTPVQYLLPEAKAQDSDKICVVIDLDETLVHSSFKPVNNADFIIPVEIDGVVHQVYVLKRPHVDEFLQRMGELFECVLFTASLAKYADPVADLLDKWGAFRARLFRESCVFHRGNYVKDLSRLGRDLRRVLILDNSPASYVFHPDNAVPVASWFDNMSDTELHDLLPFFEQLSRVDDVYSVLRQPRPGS

Protein Rev = target: T7, Protein Rev (Human immunodeficiency virus type 1 group M subtype B (isolate WMJ22)(HIV-1), UniProt P05866); experiment: inhibitors of Rev protein–RRE RNA complex – biochemical, protein-RNA interaction, dose response (AID 842); parameters: species or system Human immunodeficiency virus 1
T7 sequence (P05866 whole entry): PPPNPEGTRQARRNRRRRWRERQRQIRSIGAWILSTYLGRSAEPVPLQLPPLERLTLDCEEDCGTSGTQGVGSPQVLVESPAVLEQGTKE

[25] = target: DNA dC->dU-editing enzyme APOBEC-3G (Homo sapiens, UniProt Q9HC16); experiment: Dose Response confirmation of small molecule APOBEC3G DNA Deaminase Inhibitors via a fluorescence-based single-stranded DNA deaminase assay. [Related pubchem assays (depositor defined):AID493012, AID493028]; type: functional
[26] = target: T5, Low molecular weight phosphotyrosine protein phosphatase; type: functional; conditions: read-out: IC50_Mean; remark: listed apart in the source

Sequence of Sphingosine 1-phosphate receptor 3 (Q99500 whole entry): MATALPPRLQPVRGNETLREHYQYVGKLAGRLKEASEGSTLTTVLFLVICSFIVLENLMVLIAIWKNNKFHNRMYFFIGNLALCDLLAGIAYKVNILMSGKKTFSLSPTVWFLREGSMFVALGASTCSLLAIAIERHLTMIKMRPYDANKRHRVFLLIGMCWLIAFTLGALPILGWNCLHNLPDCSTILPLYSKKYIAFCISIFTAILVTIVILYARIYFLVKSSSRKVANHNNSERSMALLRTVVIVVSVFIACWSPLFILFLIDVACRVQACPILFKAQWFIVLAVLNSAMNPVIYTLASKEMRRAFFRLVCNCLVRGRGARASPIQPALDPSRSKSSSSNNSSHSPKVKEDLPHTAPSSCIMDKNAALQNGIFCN
Sequence of Protein-tyrosine kinase 2-beta (Q14289 whole entry): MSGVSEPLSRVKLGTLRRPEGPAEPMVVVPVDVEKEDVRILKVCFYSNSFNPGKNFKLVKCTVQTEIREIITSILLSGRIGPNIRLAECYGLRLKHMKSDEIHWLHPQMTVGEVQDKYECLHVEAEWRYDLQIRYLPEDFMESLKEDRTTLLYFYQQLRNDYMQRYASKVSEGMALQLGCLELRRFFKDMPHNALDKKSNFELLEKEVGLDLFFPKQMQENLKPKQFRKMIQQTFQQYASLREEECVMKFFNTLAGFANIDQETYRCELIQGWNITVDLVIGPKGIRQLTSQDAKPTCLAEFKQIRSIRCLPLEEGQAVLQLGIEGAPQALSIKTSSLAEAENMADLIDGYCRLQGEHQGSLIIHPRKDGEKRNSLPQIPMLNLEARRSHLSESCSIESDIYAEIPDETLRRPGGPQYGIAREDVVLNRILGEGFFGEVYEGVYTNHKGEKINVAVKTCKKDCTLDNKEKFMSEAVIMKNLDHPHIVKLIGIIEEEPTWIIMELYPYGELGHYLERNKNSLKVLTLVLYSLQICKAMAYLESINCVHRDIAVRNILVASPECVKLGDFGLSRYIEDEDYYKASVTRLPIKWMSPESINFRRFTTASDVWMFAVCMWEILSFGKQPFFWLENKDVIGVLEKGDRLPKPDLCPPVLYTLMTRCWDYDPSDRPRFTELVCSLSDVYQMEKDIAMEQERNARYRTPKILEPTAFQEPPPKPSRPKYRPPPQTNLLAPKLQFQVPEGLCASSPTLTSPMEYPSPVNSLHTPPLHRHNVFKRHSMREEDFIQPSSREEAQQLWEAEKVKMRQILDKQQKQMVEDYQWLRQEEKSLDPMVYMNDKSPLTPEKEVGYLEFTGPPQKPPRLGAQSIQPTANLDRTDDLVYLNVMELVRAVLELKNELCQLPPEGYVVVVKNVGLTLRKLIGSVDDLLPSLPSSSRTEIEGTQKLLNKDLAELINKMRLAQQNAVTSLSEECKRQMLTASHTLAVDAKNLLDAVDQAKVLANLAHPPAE
Sequence of 5-hydroxytryptamine receptor 1E (P28566 whole entry): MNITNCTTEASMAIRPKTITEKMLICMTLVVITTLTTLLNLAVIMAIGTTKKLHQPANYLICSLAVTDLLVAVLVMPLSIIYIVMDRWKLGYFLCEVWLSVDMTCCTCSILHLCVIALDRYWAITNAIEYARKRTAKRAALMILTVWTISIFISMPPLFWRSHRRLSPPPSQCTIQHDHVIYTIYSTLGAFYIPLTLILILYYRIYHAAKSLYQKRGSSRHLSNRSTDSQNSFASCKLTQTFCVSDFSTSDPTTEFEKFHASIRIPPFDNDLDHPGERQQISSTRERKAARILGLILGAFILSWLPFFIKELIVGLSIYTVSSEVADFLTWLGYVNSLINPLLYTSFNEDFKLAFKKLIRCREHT
Sequence of DNA dC->dU-editing enzyme APOBEC-3G (Q9HC16 whole entry): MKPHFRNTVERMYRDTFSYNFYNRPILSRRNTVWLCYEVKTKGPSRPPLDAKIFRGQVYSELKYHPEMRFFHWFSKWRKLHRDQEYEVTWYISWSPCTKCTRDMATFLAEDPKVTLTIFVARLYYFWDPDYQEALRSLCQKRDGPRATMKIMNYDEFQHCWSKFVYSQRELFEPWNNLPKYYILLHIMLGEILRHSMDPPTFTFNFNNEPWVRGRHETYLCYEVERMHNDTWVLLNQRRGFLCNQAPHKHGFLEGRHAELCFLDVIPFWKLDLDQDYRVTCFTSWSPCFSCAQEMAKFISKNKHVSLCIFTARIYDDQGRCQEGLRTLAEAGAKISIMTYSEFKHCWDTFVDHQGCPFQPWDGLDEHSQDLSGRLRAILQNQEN
Sequence of Eukaryotic translation initiation factor 4E (P63073 whole entry, the tested form may be a part): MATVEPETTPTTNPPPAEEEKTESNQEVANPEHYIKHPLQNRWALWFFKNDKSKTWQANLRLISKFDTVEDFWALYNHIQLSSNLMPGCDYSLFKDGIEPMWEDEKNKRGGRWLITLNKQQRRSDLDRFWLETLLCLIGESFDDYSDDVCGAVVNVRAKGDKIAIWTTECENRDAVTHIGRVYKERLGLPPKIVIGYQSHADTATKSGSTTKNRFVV
Sequence of Mucolipin-3 (Q8TDD5 whole entry): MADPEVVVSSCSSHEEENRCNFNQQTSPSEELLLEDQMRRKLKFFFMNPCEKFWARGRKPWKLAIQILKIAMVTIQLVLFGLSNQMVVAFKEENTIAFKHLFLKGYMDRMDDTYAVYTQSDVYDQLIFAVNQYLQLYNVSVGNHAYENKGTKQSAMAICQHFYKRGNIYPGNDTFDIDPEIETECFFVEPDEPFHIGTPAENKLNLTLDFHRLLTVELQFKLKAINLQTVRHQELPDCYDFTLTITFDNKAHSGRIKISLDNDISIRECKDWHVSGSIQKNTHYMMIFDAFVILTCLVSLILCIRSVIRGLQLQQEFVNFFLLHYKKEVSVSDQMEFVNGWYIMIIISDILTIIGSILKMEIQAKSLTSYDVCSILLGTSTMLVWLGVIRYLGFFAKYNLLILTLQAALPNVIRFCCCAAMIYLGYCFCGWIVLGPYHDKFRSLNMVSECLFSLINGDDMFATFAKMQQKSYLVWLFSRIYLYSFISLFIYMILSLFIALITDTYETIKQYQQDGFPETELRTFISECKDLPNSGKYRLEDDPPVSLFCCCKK
Sequence of NS3 (A3EZJ3 whole entry): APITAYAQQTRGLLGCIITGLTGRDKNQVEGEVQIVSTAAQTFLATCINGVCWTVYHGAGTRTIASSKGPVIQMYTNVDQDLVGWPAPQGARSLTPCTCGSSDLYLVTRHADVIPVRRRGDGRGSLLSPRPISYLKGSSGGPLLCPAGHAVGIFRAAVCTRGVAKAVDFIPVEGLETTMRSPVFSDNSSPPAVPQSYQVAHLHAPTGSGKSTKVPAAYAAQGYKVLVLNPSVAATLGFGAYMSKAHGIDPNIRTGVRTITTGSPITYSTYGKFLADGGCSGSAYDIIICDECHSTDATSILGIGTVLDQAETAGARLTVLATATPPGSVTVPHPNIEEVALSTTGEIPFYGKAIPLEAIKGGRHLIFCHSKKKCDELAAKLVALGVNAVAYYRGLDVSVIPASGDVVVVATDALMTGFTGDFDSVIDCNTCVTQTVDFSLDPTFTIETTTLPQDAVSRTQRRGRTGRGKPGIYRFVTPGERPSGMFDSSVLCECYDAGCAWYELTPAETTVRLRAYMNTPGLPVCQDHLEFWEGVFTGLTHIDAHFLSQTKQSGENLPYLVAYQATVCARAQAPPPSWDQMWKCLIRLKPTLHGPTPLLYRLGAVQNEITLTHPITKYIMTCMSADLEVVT

O=C(Nc1nc(-c2ccco2)c(-c2ccco2)s1)C1CCC1
IC50 (NS3): 30.4 µM (not active)

N#Cc1cccc(NC(=O)CSc2ccc3c4c(cccc24)C(=O)c2ccccc2-3)c1
EC50 [1]: 15.3 µM (active) | IC50 [2]: 4.87 µM (active) | EC50 [3]: 19.6 µM (active)

O=C1CC(/C=C/c2ccco2)=Nc2ccccc2N1
IC50 (Estrogen receptor): > 50 µM (not active)

CCCCN(CCCC)S(=O)(=O)c1ccc(NC(=O)c2ccc([N+](=O)[O-])cc2Cl)cc1
IC50 [4]: 12.6 µM (active) | EC50 [5]: 0.798 µM (active) | IC50 [6]: 1.42 µM (not active) | CC50 (Vero): 10.1 µM (active)

Cc1ccc(Sc2c(CO)c(-c3ccccc3)nn2C)cc1
EC50 [7]: > 3.8 µM (not active) | EC50 (H4): > 120 µM (not active) | EC50 [8]: 1.37 µM (inconclusive) | EC50 [9]: 0.658 µM (inconclusive) | EC50 [10]: > 120 µM (not active)

CCOC(=O)c1ccccc1NC(=O)c1c(F)c(F)c(F)c(F)c1F
EC50 [11]: 15.7 µM (active) | EC50 [12]: 13.6 µM (active)

O=C1c2ccccc2C(=O)c2c1ccc1c(O)n(-c3ccccc3)nc21
EC50 [7]: 0.478 µM (active) | EC50 (H4): 59.2 µM (inconclusive) | EC50 [8]: 0.563 µM (active) | EC50 [13]: < 0.1 µM (active) | EC50 [9]: 0.36 µM (active) | EC50 [10]: < 0.1 µM (active)

CCCCCCCCCCCCCCCC[n+]1ccn(CC(C)=O)c1
IC50 [14]: 10.1 µM (active) | IC50 [15]: 4.25 µM (active) | IC50 [6]: 21.1 µM (not active) | AC50 [16]: 2.86 µM (active)

COC(=O)c1c(N(S(C)(=O)=O)S(C)(=O)=O)sc2c1CCN(c1ncc(C(F)(F)F)cc1Cl)C2
IC50 [17]: 29.2 µM (active) | CC50 [18]: 16.9 µM (active)

COC(=O)c1ccc(CSc2nc(C)nc3sc(C)c(C)c23)o1
IC50 (Estrogen receptor): 48.9 µM (not active)

O=C(N/N=C/c1ccc(-c2ccc([N+](=O)[O-])cc2)o1)[C@H]1C[C@@H]1c1ccccc1
IC50 [19]: 3.03 µM (active) | IC50 [20]: 1.96 µM (active)

O=C(Nc1ccc(-c2nc3ccccc3[nH]2)cc1)c1ccccc1NS(=O)(=O)c1ccc(F)cc1
IC50 [15]: > 50 µM (active)

COc1ccc(OC)c(N(CC(=O)N2CCCCC2)S(=O)(=O)c2ccc(OC)c(OC)c2)c1
EC50 (Ion channel NompC): 25.6 µM (not active) | EC50 (Mucolipin-3): 1.67 µM (active)

O=C(Nc1ccc(F)cc1F)c1c(C(F)(F)F)ccnc1Oc1ccc(Cl)cc1
IC50 [19]: 4.29 µM (active) | IC50 [20]: > 50 µM (not active)

CCN(CC)c1nc2ccccc2nc1C(C#N)C(=O)NCCc1ccccc1 (stereo unspecified)
EC50 [11]: > 20 µM (not active) | EC50 [12]: > 20 µM (not active) | EC50 [21]: > 99 µM (inactive) | EC50 [22]: > 99 µM (inactive)

Cc1ccc(C(=O)NNC(=O)CSc2n[nH]c3c4cc(F)ccc4nc-3n2)cc1
IC50 [23]: 14.6 µM (active) | IC50 [24]: 5.22 µM (active) | IC50 [2]: 5.25 µM (active) | IC50 (Protein Rev): > 79.4 µM (not active) | IC50 [25]: 28.6 µM (active) | IC50 [26]: 17.5 µM (active)

— ChEMBL document CHEMBL1201862, “PubChem BioAssay data set” (2004)
